System: Genes belonging to other category
Assay: DNA chip mRNA expression in yeast, genes belonging to other category (Table 9)
Type: cell-based, Saccharomyces cerevisiae S288C
Outline: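 In this screen, yeast in logarithmic growth are challenged for two hours with a toxic substance at a non-lethal inhibitory concentration. Their mRNA, converted to Cy3- or Cy5-labeled cDNA, hybridizes at 65° C. to a chip spanning every yeast gene, and expression is expressed as a ratio to untreated cells.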

CCCCC[C@H](O)CC(=O)CCc1ccc(O)c(OC)c1 [(13), gingerol]
The level of expressed mRNA in the presence of chemical substance/The level of expressed mRNA in the absence of chemical substance (yeast gene YAL007C): 2.0
The level of expressed mRNA in the presence of chemical substance/The level of expressed mRNA in the absence of chemical substance (yeast gene YBL005W-A): 2.9
The level of expressed mRNA in the presence of chemical substance/The level of expressed mRNA in the absence of chemical substance (yeast gene YBL041W): 2.6
The level of expressed mRNA in the presence of chemical substance/The level of expressed mRNA in the absence of chemical substance (yeast gene YBL043W): 1.8
The level of expressed mRNA in the presence of chemical substance/The level of expressed mRNA in the absence of chemical substance (yeast gene YBR109C): 2.0
The level of expressed mRNA in the presence of chemical substance/The level of expressed mRNA in the absence of chemical substance (yeast gene YBR201W): 1.9
The level of expressed mRNA in the presence of chemical substance/The level of expressed mRNA in the absence of chemical substance (yeast gene YCL020W): 3.0
The level of expressed mRNA in the presence of chemical substance/The level of expressed mRNA in the absence of chemical substance (yeast gene YCL027W): 1.1
The level of expressed mRNA in the presence of chemical substance/The level of expressed mRNA in the absence of chemical substance (yeast gene YCR004C): 1.3
The level of expressed mRNA in the presence of chemical substance/The level of expressed mRNA in the absence of chemical substance (yeast gene YCR071C): 1.3
The level of expressed mRNA in the presence of chemical substance/The level of expressed mRNA in the absence of chemical substance (yeast gene YCR088W): 1.9
The level of expressed mRNA in the presence of chemical substance/The level of expressed mRNA in the absence of chemical substance (yeast gene YDL008W): 2.0
The level of expressed mRNA in the presence of chemical substance/The level of expressed mRNA in the absence of chemical substance (yeast gene YDL097C): 4.0
The level of expressed mRNA in the presence of chemical substance/The level of expressed mRNA in the absence of chemical substance (yeast gene YDL126C): 4.3
The level of expressed mRNA in the presence of chemical substance/The level of expressed mRNA in the absence of chemical substance (yeast gene YDL212W): 0.5
The level of expressed mRNA in the presence of chemical substance/The level of expressed mRNA in the absence of chemical substance (yeast gene YDL238C): 2.0
The level of expressed mRNA in the presence of chemical substance/The level of expressed mRNA in the absence of chemical substance (yeast gene YDR055W): 3.1
The level of expressed mRNA in the presence of chemical substance/The level of expressed mRNA in the absence of chemical substance (yeast gene YDR084C): 1.0
The level of expressed mRNA in the presence of chemical substance/The level of expressed mRNA in the absence of chemical substance (yeast gene YDR085C): 1.1
The level of expressed mRNA in the presence of chemical substance/The level of expressed mRNA in the absence of chemical substance (yeast gene YDR104C): 1.6
The level of expressed mRNA in the presence of chemical substance/The level of expressed mRNA in the absence of chemical substance (yeast gene YDR115W): 1.1
The level of expressed mRNA in the presence of chemical substance/The level of expressed mRNA in the absence of chemical substance (yeast gene YDR315C): 1.6
The level of expressed mRNA in the presence of chemical substance/The level of expressed mRNA in the absence of chemical substance (yeast gene YDR358W): 3.2
The level of expressed mRNA in the presence of chemical substance/The level of expressed mRNA in the absence of chemical substance (yeast gene YDR388W): 1.7
The level of expressed mRNA in the presence of chemical substance/The level of expressed mRNA in the absence of chemical substance (yeast gene YDR481C): 1.5
The level of expressed mRNA in the presence of chemical substance/The level of expressed mRNA in the absence of chemical substance (yeast gene YDR518W): 1.8
The level of expressed mRNA in the presence of chemical substance/The level of expressed mRNA in the absence of chemical substance (yeast gene YEL042W): 0.4
The level of expressed mRNA in the presence of chemical substance/The level of expressed mRNA in the absence of chemical substance (yeast gene YEL066W): 1.6
The level of expressed mRNA in the presence of chemical substance/The level of expressed mRNA in the absence of chemical substance (yeast gene YER012W): 2.9
The level of expressed mRNA in the presence of chemical substance/The level of expressed mRNA in the absence of chemical substance (yeast gene YER130C): 1.6
The level of expressed mRNA in the presence of chemical substance/The level of expressed mRNA in the absence of chemical substance (yeast gene YER136W): 1.3
The level of expressed mRNA in the presence of chemical substance/The level of expressed mRNA in the absence of chemical substance (yeast gene YFL022C): 0.6
The level of expressed mRNA in the presence of chemical substance/The level of expressed mRNA in the absence of chemical substance (yeast gene YFL043C): 1.5
The level of expressed mRNA in the presence of chemical substance/The level of expressed mRNA in the absence of chemical substance (yeast gene YGL158W): 1.0
The level of expressed mRNA in the presence of chemical substance/The level of expressed mRNA in the absence of chemical substance (yeast gene YGL229C): 1.7
The level of expressed mRNA in the presence of chemical substance/The level of expressed mRNA in the absence of chemical substance (yeast gene YGR136W): 1.7
The level of expressed mRNA in the presence of chemical substance/The level of expressed mRNA in the absence of chemical substance (yeast gene YGR189C): 1.2
The level of expressed mRNA in the presence of chemical substance/The level of expressed mRNA in the absence of chemical substance (yeast gene YGR257C): 2.0
The level of expressed mRNA in the presence of chemical substance/The level of expressed mRNA in the absence of chemical substance (yeast gene YHR004C): 1.1
The level of expressed mRNA in the presence of chemical substance/The level of expressed mRNA in the absence of chemical substance (yeast gene YHR071W): 2.3
The level of expressed mRNA in the presence of chemical substance/The level of expressed mRNA in the absence of chemical substance (yeast gene YHR142W): 1.2
The level of expressed mRNA in the presence of chemical substance/The level of expressed mRNA in the absence of chemical substance (yeast gene YIL123W): 0.4
The level of expressed mRNA in the presence of chemical substance/The level of expressed mRNA in the absence of chemical substance (yeast gene YJL073W): 1.6
The level of expressed mRNA in the presence of chemical substance/The level of expressed mRNA in the absence of chemical substance (yeast gene YJL089W): 1.8
The level of expressed mRNA in the presence of chemical substance/The level of expressed mRNA in the absence of chemical substance (yeast gene YJR099W): 1.5
The level of expressed mRNA in the presence of chemical substance/The level of expressed mRNA in the absence of chemical substance (yeast gene YJR122W): 1.3
The level of expressed mRNA in the presence of chemical substance/The level of expressed mRNA in the absence of chemical substance (yeast gene YJR125C): 1.5
The level of expressed mRNA in the presence of chemical substance/The level of expressed mRNA in the absence of chemical substance (yeast gene YKL008C): 1.7
The level of expressed mRNA in the presence of chemical substance/The level of expressed mRNA in the absence of chemical substance (yeast gene YKL013C): 1.3
The level of expressed mRNA in the presence of chemical substance/The level of expressed mRNA in the absence of chemical substance (yeast gene YKL039W): 1.9

From patent US8192962B2, “Processes for detecting toxic substances” (Daikin Industries, Ltd., priority 2001, dated 2012)
